Laboratory results taken from PMC5389515 (Nucleic Acids Research, 2016).

How the values were obtained:
[1] = target: Trm11–Trm112 complex (Saccharomyces cerevisiae, UniProt Q12463, D291A); experiment: biochemical
[2] = target: Trm11–Trm112 complex (Saccharomyces cerevisiae, UniProt Q12463); experiment: biochemical
Sequence of Trm11–Trm112 complex (Saccharomyces cerevisiae, UniProt Q12463) (Q12463 whole entry): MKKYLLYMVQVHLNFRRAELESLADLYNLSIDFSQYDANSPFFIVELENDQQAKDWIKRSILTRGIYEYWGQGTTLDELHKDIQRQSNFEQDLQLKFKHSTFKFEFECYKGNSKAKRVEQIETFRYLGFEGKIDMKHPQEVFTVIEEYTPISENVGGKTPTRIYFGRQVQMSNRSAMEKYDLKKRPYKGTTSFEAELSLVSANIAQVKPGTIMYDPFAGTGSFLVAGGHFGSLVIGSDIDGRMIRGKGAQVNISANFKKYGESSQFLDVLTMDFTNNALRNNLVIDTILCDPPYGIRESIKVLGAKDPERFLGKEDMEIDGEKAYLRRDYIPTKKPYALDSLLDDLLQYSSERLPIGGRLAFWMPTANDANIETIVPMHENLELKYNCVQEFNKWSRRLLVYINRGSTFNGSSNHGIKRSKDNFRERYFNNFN
Sequence of Trm11–Trm112 complex (Saccharomyces cerevisiae, UniProt Q12463) (P53738 whole entry partner): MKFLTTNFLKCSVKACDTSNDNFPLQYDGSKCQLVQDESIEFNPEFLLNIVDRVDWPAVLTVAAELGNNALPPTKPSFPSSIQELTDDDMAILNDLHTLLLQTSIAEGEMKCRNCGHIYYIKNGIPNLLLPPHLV

Sequence of Trm11–Trm112 complex (Saccharomyces cerevisiae, UniProt Q12463, D291A) (Q12463 whole entry D291A): as the sequence (Q12463 whole entry) above, with D291A counted along it
Sequence of Trm11–Trm112 complex (Saccharomyces cerevisiae, UniProt Q12463, D291A) (P53738 whole entry partner): as the sequence (P53738 whole entry partner) above

C[S+](CC[C@H](N)C(=O)O)C[C@H]1O[C@@H](n2cnc3c(N)ncnc32)[C@H](O)[C@@H]1O (some centres unmarked) [SAM]
Kd [1]: 3.4 ± 0.6 µM | Kd [2]: 1.9 ± 0.3 µM
